According to patent EP0495091B1 (Metabasis Therapeutics Inc., priority 1990, dated 1992):
Counter-ions that a name gives are not always drawn. Like-named read-outs stand apart in the source and are kept apart here.

Key:
[1] = tested on: longitudinal muscle from the guinea pig ileum; assay: Inhibition of stimulated contraction in isolated ileum
Experimental: Parallel platinum electrodes were used to deliver electrical current at 1 minute intervals at a voltage adequate to induce contraction of 90% of maximal.

[2] = target: T1, NBTI-specific adenosine transport site (Homo sapiens, UniProt Q99808); assay: [3H]-NBTI binding assay; conditions: 50% displacement of bound [3H]-NBTI (0.5 nM); neuronal membrane protein, 30 minutes, pH 7.4, room temperature; read-out: ED50 (the source's name)
T1 construct: incubated for 30 minutes with 0.5 mg neuronal membrane protein together with 0.5 nM [^3H]-NBTI; from tissue
T1 sequence (Q99808 1-456): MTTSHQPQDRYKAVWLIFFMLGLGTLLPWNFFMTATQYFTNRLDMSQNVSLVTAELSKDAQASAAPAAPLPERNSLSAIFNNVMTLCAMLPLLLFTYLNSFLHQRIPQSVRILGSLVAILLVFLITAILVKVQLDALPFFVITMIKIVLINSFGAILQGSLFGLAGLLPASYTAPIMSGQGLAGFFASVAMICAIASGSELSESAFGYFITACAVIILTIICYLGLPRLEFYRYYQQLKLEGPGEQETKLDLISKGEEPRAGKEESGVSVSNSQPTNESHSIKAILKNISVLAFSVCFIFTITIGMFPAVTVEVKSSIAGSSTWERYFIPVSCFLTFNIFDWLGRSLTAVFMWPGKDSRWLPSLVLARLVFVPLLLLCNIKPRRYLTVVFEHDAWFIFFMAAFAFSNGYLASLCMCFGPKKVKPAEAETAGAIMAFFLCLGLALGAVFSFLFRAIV
Experimental: Increasing concentrations of the test compounds were incubated for 30 minutes with 0.5 mg neuronal membrane protein together with 0.5 nM [^3H]-NBTI in a Tris buffer (pH 7.4) at room temperature. The assays were quenched and membranes collected by rapid filtration. Filters were then solubilized and radioactivity determined by scintillation counting.

Isolated rat hearts = assay: Improved functional recovery in isolated hearts (Langendorff, post-ischemic LVDP); conditions: 5 µM in perfusion buffer; 30 min ischemia, 30 min reperfusion; number in brackets = hearts
Experimental: Isolated rat hearts were cannulated via the ascending aorta and attached to a perfusion apparatus according to the method of Langendorff. The hearts were perfused at a constant pressure of 100 cm of H2O with a modified Krebs-Henseleit buffer (pH 7.4) at 37°C. As a measure of heart function, left ventricular developed pressure (LVDP) was continuously monitored. Following equilibration of the hearts for a period of 30 min., the hearts were subjected to reduced flow i.e. ischemia, by reducing the pressure to 10 cm of H2O for 30 min. Flow was then restored by returning the pressure to its original level (100 cm of H2O) for a further 30 min.

[3] = tested on: coronary endothelial cells; assay: Inhibition of adenosine utilization in cell culture; format: cell-based; conditions: for inhibition at 5 µM / inhibition at 50 µM: Endothelial cell, read-out: Inhibition of Adenosine Utilization (%)
Experimental: Inhibition of adenosine utilization was determined by measuring the concentration of extracellular adenosine by scintillation counting following separation by thin layer chromatography (TLC).

[4] = Cavia porcellus, concentration which inhibited electrically stimulated contraction by 50%, read-out: IC50
[5] = concentration which inhibited electrically stimulated contraction by 50%, read-out: IC50
[6] = 5 µM test compound, 1 µM [3H] adenosine, 15 minutes
[7] = 50 µM test compound, 1 µM [3H] adenosine, 15 minutes

Row | SMILES | EC50 [2] [µM] | Function Recovery % Baseline LVDP (% of hearts) (Isolated rat hearts) | other results
1 | Nc1c(C(=O)NCc2ccccc2Cl)ncn1[C@@H]1O[C@H](CO)[C@@H](O)[C@H]1O [Compound No. 24, 5-Amino-1-β-D-ribofuranosylimidazole-4-N-[(2-chlorophenyl)methyl]carboxamide] | 300 |  | IC50 ([1]; Cavia porcellus): 400 µM
2 | Nc1c(C(=O)NCc2cccc(Cl)c2)ncn1[C@@H]1O[C@H](CO)[C@@H](O)[C@H]1O [Compound No. 35, 5-amino-1-β-D-ribofuranosyl-imidazole-4-N[(3-chlorophenyl)methyl]carboxamide] |  |  | IC50 [1, 4]: 60 µM
3 | Cl.NC[C@H]1O[C@@H](n2cnc(C(=O)NC3CCCC3)c2N)[C@H](O)[C@@H]1O [Compound No. 37, 5-Amino-1-(5-amino-5-deoxy-β-D-ribofuranosyl)imidazole-4-N-(cyclopentyl)carboxamide Hydrochloride] |  | 71.9±3.0 (5) % | 
4 | CN(C)c1ccc(CNC(=O)c2ncn([C@@H]3O[C@H](CO)[C@@H](O)[C@H]3O)c2N)cc1 [Compound No. 41, 5-Amino-1-β-D-ribofuranosylimidazole-4-N(4-dimethylaminobenzyl)-carboxamide hydrochloride] |  |  | IC50 [1, 5]: 100 µM
5 | Nc1c(C(=O)NCc2cccc(I)c2)ncn1[C@@H]1O[C@H](CO)[C@@H](O)[C@H]1O [Compound No. 44, 5-Amino-1-β-D-ribofuranosyl-imidazole-4-N-[(3-iodophenyl)methyl]carboxamide] |  |  | IC50 [1, 4]: 20 µM
6 | Nc1c(C(=O)NC2CC3CCC2C3)ncn1[C@@H]1O[C@H](CO)[C@@H](O)[C@H]1O (stereo partly drawn) [Compound No. 45, 5-Amino-1-β-D-ribofuranosylimidazole-4-N-(2-endo-norbornyl)carboxamide] | 90 |  | IC50 ([1]; Cavia porcellus): 100 µM
7 | Nc1c(C(=O)NCc2ccc([N+](=O)[O-])cc2)ncn1[C@@H]1O[C@H](CI)[C@@H](O)[C@H]1O [Compound No. 46, 5-Amino-1-(5-iodo-5-deoxy-β-D-ribofuranosyl)imidazole-4-N-[(4-nitrophenyl)methyl]carboxamide] | 8 |  | inhibition at 5 µM [3]: 19 ± 4%; inhibition at 50 µM [3]: 30 ± 9%
8 | Nc1c(C(=O)N2CCc3ccccc32)ncn1[C@@H]1O[C@H](CO)[C@@H](O)[C@H]1O [Compound No. 48, 5-Amino-1-β-D-ribofuranosyl-imidazole-4-N-indolinylcarboxamide] | 22 |  | inhibition at 5 µM [3]: 23 ± 3%; inhibition at 50 µM [3]: 25 ± 2%
9 | C[C@@H](NC(=O)c1ncn([C@@H]2O[C@H](CO)[C@@H](O)[C@H]2O)c1N)c1ccc([N+](=O)[O-])cc1 [Compound No. 49] | 7 |  | inhibition at 5 µM [3]: 30 ± 4%; inhibition at 50 µM [3]: 33 ± 8%
10 | C[C@H](NC(=O)c1ncn([C@@H]2O[C@H](CO)[C@@H](O)[C@H]2O)c1N)c1ccc([N+](=O)[O-])cc1 [Compound No. 50, (S)-5-Amino-1-β-D-ribofuranosylimidazole-4-N-[1-(4-nitrophenyl)ethyl]carboxamide] | 28 |  | 
11 | [N-]=[N+]=NC[C@H]1O[C@@H](n2cnc(C(=O)NCc3ccc(Cl)cc3)c2N)[C@H](O)[C@@H]1O [Compound No. 52, 5-Amino-1-(5-azido-5-deoxy-β-D-ribofuranosyl)imidazole-4-N-[(4-chlorophenyl)methyl]-carboxamide] |  | 86.0±2.5 (5) % | inhibition at 5 µM [3, 6]: 56 ± 2%; inhibition at 50 µM [3, 7]: 71 ± 1%
12 | CSC[C@H]1O[C@@H](n2cnc(C(N)=O)c2N)[C@H](O)[C@@H]1O [Compound No. 54, 5-Amino-1-(5-deoxy-5-methylthio-β-D-ribofuranosyl)imidazole-4-carboxamide] | 28 |  | 
13 | Nc1c(C(=O)Nc2ccc(Br)cc2)ncn1[C@@H]1O[C@H](CO)[C@@H](O)[C@H]1O [Compound No. 55, 5-Amino-1-β-D-ribofuranosylimidazole-4-N-(4-bromophenyl)carboxamide] | 60 |  | 
14 | Nc1c(C(=O)Nc2ccc(I)cc2)ncn1[C@@H]1O[C@H](CO)[C@@H](O)[C@H]1O [Compound No. 57, 5-Amino-1-β-D-ribofuranosyl-imidazole-4-N-(4-iodophenyl)carboxamide] | 80 |  | 
15 | Nc1c(C(=O)Nc2ccc([N+](=O)[O-])cc2)ncn1[C@@H]1O[C@H](CO)[C@@H](O)[C@H]1O [Compound No. 58, 5-Amino-1-β-D-ribofuranosylimidazole-4-N-(4-nitrophenyl)carboxamide] | 80 |  | 
16 | Nc1c(C(=O)N2CCN(c3ccc([N+](=O)[O-])cc3)CC2)ncn1[C@@H]1O[C@H](CO)[C@@H](O)[C@H]1O [Compound No. 60, 5-Amino-4-[1-[4-(4-nitrophenyl)]piperazinocarbamoyl]-1-β-D-ribofuranosylimidazole] | 17 |  | 
17 | CNC[C@H]1O[C@@H](n2cnc(C(N)=O)c2N)[C@H](O)[C@@H]1O [Compound No. 63, 5-Amino-1-β-D-(5-deoxy-5-methylaminoribofuranosyl)imidazole-4-carboxamide] |  | 79.7±4.8 (4) % | 
18 | Nc1c(C(=O)Nc2ccccc2Cl)ncn1[C@@H]1O[C@H](CO)[C@@H](O)[C@H]1O [Compound No. 64, 5-Amino-1-β-D-ribofuranosylimidazole-4-N-(2-chlorophenyl)carboxamide] | 48 |  | 
19 | NC(=O)c1ncn([C@@H]2O[C@H](CNCc3ccccc3)[C@@H](O)[C@H]2O)c1N [Compound No. 66, 5-Amino-1-β-D-(5-benzylamino-5-deoxyribofuranosyl)imidazole-4-carboxamide] |  | 88.5±1.8 (5) % | 
20 | C[C@H]1O[C@@H](n2c(S)nc(C(N)=O)c2N)[C@H](O)[C@@H]1O [Compound No. 67, 5-Amino-2-thio-1-β-D-(5-deoxyribofuranosyl)imidazole-4-carboxamide] |  | 77.4±5.7 (3) % | 
21 | Nc1c(C(=O)NCCCCCCNC(=O)c2ncn([C@@H]3O[C@H](CO)[C@@H](O)[C@H]3O)c2N)ncn1[C@@H]1O[C@H](CO)[C@@H](O)[C@H]1O [Compound No. 68, N,N'-bis-(5-amino-1-β-D-ribofuranosylimidazole-4-carbonyl)-1,6-diaminohexane] |  | 75.3±2.2 (4) % | 
22 | Nc1c(C(=O)NC2CCC(NC(=O)c3ncn([C@@H]4O[C@H](CO)[C@@H](O)[C@H]4O)c3N)CC2)ncn1[C@@H]1O[C@H](CO)[C@@H](O)[C@H]1O (stereo partly drawn) [Compound No. 69, N,N'-Bis-(5-Amino-1-β-D-ribofuranosylimidazole-4-carbonyl)-1,4-diaminocyclohexane] |  | 77.0±2.8 (6) % | 
23 | Nc1c(C(=O)NCCCc2ccc([N+](=O)[O-])cc2)ncn1[C@@H]1O[C@H](CO)[C@@H](O)[C@H]1O [Compound No. 73] |  |  | Inhibition of Adenosine Utilization (%) [3, 6]: 16 ± 0%; Inhibition of Adenosine Utilization (%) [3, 7]: 33 ± 9%
24 | Nc1c(C(=O)NCc2ccc(C(F)(F)F)cc2)ncn1[C@@H]1O[C@H](CO)[C@@H](O)[C@H]1O [Compound No. 74] |  | 73.3±3.3 (6) % | 
25 | Nc1c(C(=O)NCc2ccc(S(N)(=O)=O)cc2)ncn1[C@@H]1O[C@H](CO)[C@@H](O)[C@H]1O [Compound No. 75, 5-Amino-1-β-D-ribofuranosylimidazole-4-N-[(4-sulfamoylphenyl)methyl]carboxamide] |  |  | Inhibition of Adenosine Utilization (%) [3, 7]: 30 ± 3%
26 | NC(=O)c1ncn([C@@H]2O[C@H](CNCc3ccc(Cl)cc3)[C@@H](O)[C@H]2O)c1N [Compound No. 76, 5-Amino-1-(5-(4-chlorobenzyl-amino)-5-deoxyβ-D-ribofuranosyl)imidazole-4-carboxamide] |  | 74.0±2.5 (6) % | 
27 | Nc1c(C(=O)NC[C@H](O)c2ccc(O)c(O)c2)ncn1[C@@H]1O[C@H](CO)[C@@H](O)[C@H]1O [compound 42, (R)-5-Amino-1-β-D-ribofurano-sylimidazole-4-N-[2-hydroxy-2-(3,4-dihydroxyphenyl)ethyl]carboxamide] |  |  | IC50 [1, 5]: 6 µM
28 | CCN(CC)C[C@H]1O[C@@H](n2cnc(C(N)=O)c2N)[C@H](O)[C@@H]1O [compound 65, 5-Amino-1-(5-deoxy-5-diethylaminoribo-β,D-furanosyl)imidazole-4-carboxamide] |  | 72.3±5.6 (4) % | 
